Source: article PMC12503909, “C1′‐Branched Acyclic Nucleoside Phosphonates as Inhibitors of Plasmodium Falciparum 6‐Oxopurine Phosphoribosyltransferase” (Chemmedchem, 2025)
Structures can show the parent of a compound that is named as a salt.

What was measured:
[1] = test system: P. falciparum W2; test: In vitro antimalarial activity, 3H-hypoxanthine growth inhibition assay, W2 line; format: cell-based, Plasmodium falciparum; details: 96 h, Pf infected erythrocytes, W2 strain resistant to chloroquine, mean ± SD of three independent experiments
Description: (§1) The IC50 values were determined as previously described.^[ [32] ^] P. falciparum D6 (Sierra‐Leone) laboratory line, sensitive to most antimalarial drugs, and W2 (Indochina) line, resistant to chloroquine and pyrimethamine, were maintained as previously described^[ [33] ^] in medium consisted of 10.4 g L^−1 RPMI‐1640‐LPLF powder (Gibco BRL), 5.97 g L^−1 HEPES buffer (MP Biomedicals, USA), 2.0 g L^−1 d‐glucose (BDH chemicals, Australia), 0.05 g L^−1 hypoxanthine (Sigma, USA) and 40 mg L^−1 gentamycin (Pfizer, Australia), supplemented with 0.21% NaHCO3 and 10% human plasma prior to use. Red blood cells O (Rh+) type were obtained from the Australian Red Cross Blood Service and added to 4% haematocrit. Cultures were routinely synchronized using D‐sorbitol.^[ [34] ^] To evaluate the antimalarial activity of the ANPs, the ^3H‐hypoxanthine growth inhibition assay was utilized, where the uptake of ^3H‐hypoxanthine by malaria parasites is used as a surrogate marker for parasite growth. For these assays, stock solutions of the tested compounds were made to concentrations of 20–40 mM in DMSO or water and subsequently diluted in hypoxanthine‐free complete media prior to assay. The assays (in 96‐well plate format) were initiated when most parasites (> 90%) were at the early trophozoite (ring) stage. Parasite cultures (100 μL per well) at 0.5% initial parasitemia and 2% hematocrit in hypoxanthine‐free RPMI1640‐LPLF medium were exposed to ten twofold serial dilutions of the compounds and chloroquine (reference drug) for 96 h, with ^3H‐hypoxanthine (0.2 μCi well^−1) added ≈48 h after the beginning of the experiment.
(§2) The ^3H‐hypoxanthine incorporation data were analyzed, and sigmoidal growth inhibition curves were produced by nonlinear regression analysis of the ^3H‐hypoxanthine incorporation data versus log‐transformed concentrations of the compounds using Graphpad Prism V5.0 software (GraphPad Software Inc. USA). […] The IC50 values were based on three independent experiments, with mean ± SD calculated.

[2] = test system: P. falciparum D6; test: In vitro antimalarial activity, 3H-hypoxanthine growth inhibition assay, D6 line; format: cell-based, Plasmodium falciparum; details: 96 h, Pf infected erythrocytes, D6 strain sensitive to chloroquine, mean ± SD of three independent experiments
Description: as §1, §2

[3] = test system: NHDF; test: Cytotoxicity of the prodrug in human cells (CellTiter-Glo 2.0), NHDF; format: cell-based; details: 10 µM, versus untreated control; mean ± SD
Description: (§3) Compound cytotoxicity was evaluated in nontumor human dermal fibroblasts (NHDF), CCRF‐CEM, HL‐60, HeLa, and HepG2 cells. All cell lines were obtained from ATCC (Manassas, VA, USA). The cytotoxicity was assayed using CellTiter‐Glo 2.0 detection reagent (Promega, Madison, USA) according to the manufacturer's protocol. The concentration of prodrug used in this assay was 10 μM. This concentration was chosen as it would more accurately reflect the expected concentration in an in vitro assessment.

[4] = test system: CCRF-CEM; test: Cytotoxicity of the prodrug in human cells (CellTiter-Glo 2.0), CCRF-CEM; format: cell-based; details: 10 µM, versus untreated control; mean ± SD
Description: as §3

[5] = test system: HL-60; test: Cytotoxicity of the prodrug in human cells (CellTiter-Glo 2.0), HL-60; format: cell-based; details: 10 µM, versus untreated control; mean ± SD
Description: as §3

[6] = test system: HeLa; test: Cytotoxicity of the prodrug in human cells (CellTiter-Glo 2.0), HeLa; format: cell-based; details: 10 µM, versus untreated control; mean ± SD
Description: as §3

[7] = test system: HepG2; test: Cytotoxicity of the prodrug in human cells (CellTiter-Glo 2.0), HepG2; format: cell-based; details: 10 µM, versus untreated control; mean ± SD
Description: as §3

[8] = target: T1, PfHGXPRT (Plasmodium falciparum, UniProt P20035); test: Determination of Ki values, PfHGXPRT; format: biochemical; details: 0.1 M Tris-HCl, 10 mM MgCl2, pH 7.4; guanine 60 μM, variable PRib-PP; mean ± SD of three independent experiments
T1 construct: made in house
T1 sequence (P20035 1-231): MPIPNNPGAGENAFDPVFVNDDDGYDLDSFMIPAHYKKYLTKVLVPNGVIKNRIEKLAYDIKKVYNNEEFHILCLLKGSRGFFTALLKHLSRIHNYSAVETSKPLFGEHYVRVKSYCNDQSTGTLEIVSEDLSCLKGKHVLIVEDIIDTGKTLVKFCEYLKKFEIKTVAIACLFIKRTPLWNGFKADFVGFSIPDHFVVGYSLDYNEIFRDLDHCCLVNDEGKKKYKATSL
Description: (§4) The human and Pf enzymes were purified as described previously.^[ [7] ^, [26] ^] All assays were performed in 0.1 M Tris‐HCl, 10 mM MgCl2, pH 7.4. […] The K i was calculated using the equation, v o = Vmax.[S]o/[S]o + K m(app) and K m(app) = K m [1 + [I]/K i ].

[9] = target: T2, human HGPRT (Homo sapiens, UniProt P00492); test: Determination of Ki values, human HGPRT; format: biochemical; details: 0.1 M Tris-HCl, 10 mM MgCl2, pH 7.4; guanine 60 μM, variable PRib-PP; mean ± SD of three independent experiments
T2 construct: made in house
T2 sequence (P00492 1-218): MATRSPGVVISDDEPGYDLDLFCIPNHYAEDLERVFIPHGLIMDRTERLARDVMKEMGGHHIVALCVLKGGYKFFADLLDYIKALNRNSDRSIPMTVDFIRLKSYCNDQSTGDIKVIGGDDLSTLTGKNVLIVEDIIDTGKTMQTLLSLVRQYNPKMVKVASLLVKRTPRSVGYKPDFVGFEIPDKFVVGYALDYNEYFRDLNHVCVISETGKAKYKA
Description: as §4

[10] = Plasmodium falciparum, W2, Erythrocyte
[11] = Plasmodium falciparum, D6, Erythrocyte

CCOC(=O)[C@H](Cc1ccccc1)NP(=O)(CCOCC(OCCOCP(=O)(N[C@@H](Cc1ccccc1)C(=O)OCC)N[C@@H](Cc1ccccc1)C(=O)OCC)n1cnc2c(=O)[nH]c(N)nc21)N[C@@H](Cc1ccccc1)C(=O)OCC (mixture of isomers) [19b, Tetra‐(L‐phenylalaninate ethyl ester) prodrug of (2‐(2‐(guanin‐9‐yl)‐2‐(2‐(phosphonatomethoxy)ethoxy)ethoxy)ethyl)phosphonic acid]
IC50 [1, 10]: 8.8 ± 2.6 µM | IC50 [2, 11]: 4.3 ± 0.7 µM

CCOC(=O)[C@H](Cc1ccccc1)NP(=O)(COCC(OCCO)n1cnc2c(=O)[nH]c(N)nc21)N[C@@H](Cc1ccccc1)C(=O)OCC (mixture of isomers) [21b, Bis‐(L‐phenylalaninate ethyl ester) prodrug of ((2‐(guanin‐9‐yl)‐2‐(2‐hydroxyethoxy)ethoxy)methyl)phosphonic acid]
Viability NHDF [3]: 94 ± 8 % control | Viability CCRF-CEM [4]: 97 ± 1 % control | IC50 [1, 10]: 79 ± 8 µM | Viability HL-60 [5]: 100 ± 2 % control | IC50 [2, 11]: 84 ± 10 µM | Viability HeLa [6]: 91 ± 2 % control | Viability HepG2 [7]: 93 ± 4 % control

O=c1[nH]cnc2c1ncn2C(COCCP(=O)(O)O)OCCOCP(=O)(O)O (stereo not shown) [18a, Sodium salt of (2‐(2‐(hypoxanthin‐9‐yl)‐2‐(2‐(phosphonatomethoxy)ethoxy)ethoxy)ethyl)phosphonic acid]
Ki [8]: 5 ± 1 µM | Ki [9]: > 60 µM

Nc1nc2c(ncn2C(COCCP(=O)(O)O)OCCOCP(=O)(O)O)c(=O)[nH]1 (stereo not shown) [18b, Sodium salt of (2‐(2‐(guanin‐9‐yl)‐2‐(2‐(phosphonatomethoxy)ethoxy)ethoxy)ethyl)phosphonic acid]
Ki [8]: 1 ± 0.2 µM | Ki [9]: 0.7 ± 0.4 µM

CCOC(=O)[C@H](Cc1ccccc1)NP(=O)(CCOCC(OCCOCP(=O)(N[C@@H](Cc1ccccc1)C(=O)OCC)N[C@@H](Cc1ccccc1)C(=O)OCC)n1cnc2c(=O)[nH]cnc21)N[C@@H](Cc1ccccc1)C(=O)OCC (stereo partly shown) [19a, Tetra‐(L‐phenylalaninate ethyl ester) prodrug of (2‐(2‐(hypoxanthin‐9‐yl)‐2‐(2‐(phosphonatomethoxy)ethoxy)ethoxy)ethyl)phosphonic acid]
Viability NHDF [3]: 114 ± 5 % control | Viability CCRF-CEM [4]: 106 ± 1 % control | IC50 [1]: 3.4 ± 1.1 µM | IC50 [1, 10]: 3 µM | Viability HL-60 [5]: 112 ± 1 % control | IC50 [2]: 2.1 ± 0.2 µM | IC50 [2, 11]: 2 µM | Viability HeLa [6]: 105 ± 1 % control | Viability HepG2 [7]: 116 ± 1 % control

O=c1[nH]cnc2c1ncn2C(COCP(=O)(O)O)OCCO (stereo not shown) [20a, Sodium salt of ((2‐(2‐hydroxyethoxy)‐2‐(hypoxanthin‐9‐yl)ethoxy)methyl) phosphonic acid]
Ki [9]: 160 µM

Nc1nc2c(ncn2C(COCP(=O)(O)O)OCCO)c(=O)[nH]1 (stereo not shown) [20b, Sodium salt of ((2‐(guanin‐9‐yl)‐2‐(2‐hydroxyethoxy)ethoxy)methyl)phosphonic acid]
Ki [8]: 5 ± 1 µM | Ki [9]: 30 ± 5 µM

O=c1[nH]cnc2c1ncn2C(COCCP(=O)(O)O)OCCO (stereo not shown) [20c, Sodium salt of (2‐(2‐(2‐hydroxyethoxy)‐2‐(hypoxanthin‐9‐yl)ethoxy)ethyl)phosphonic acid]
Ki [8]: 10 ± 5 µM | Ki [9]: > 20 µM

Nc1nc2c(ncn2C(COCCP(=O)(O)O)OCCO)c(=O)[nH]1 (stereo not shown) [20d, Sodium salt of (2‐(2‐(2‐hydroxyethoxy)‐2‐(guanin‐9‐yl)ethoxy)ethyl)phosphonic acid]
Ki [8]: 0.4 ± 0.1 µM | Ki [9]: 2.5 ± 0.4 µM

O=c1[nH]c(Cl)nc2c1ncn2C(COCCP(=O)(O)O)OCCO (stereo not shown) [20e, Sodium salt of (2‐(2‐(2‐chlorohypoxanthin‐9‐yl)‐2‐(2‐hydroxyethoxy)ethoxy)ethyl)phosphonic acid]
Ki [8]: 50 ± 10 µM | Ki [9]: > 60 µM

O=c1[nH]cnc2c1cnn2C(COCCP(=O)(O)O)OCCO (stereo not shown) [20f, Sodium salt of (2‐(2‐(2‐hydroxyethoxy)‐2‐(4‐oxo‐4,5‐dihydro‐1H‐pyrazolo[3,4‐d]pyrimidin‐1‐yl)ethoxy)ethyl)phosphonic acid]
Ki [8]: > 60 µM | Ki [9]: > 60 µM

O=c1[nH]cnc2c1ncn2C(CCOCP(=O)(O)O)OCCCO (stereo not shown) [20g, Sodium salt of ((3‐(3‐hydroxypropoxy)‐3‐(hypoxanthin‐9‐yl)propoxy)methyl)phosphonic acid]
Ki [8]: > 60 µM | Ki [9]: > 60 µM

Nc1nc2c(ncn2C(CCOCP(=O)(O)O)OCCCO)c(=O)[nH]1 (stereo not shown) [20h, Sodium salt of ((3‐(guanin‐9‐yl)‐3‐(3‐hydroxypropoxy)propoxy)methyl)phosphonic acid]
Ki [8]: > 60 µM | Ki [9]: 10 ± 3 µM

O=c1[nH]cnc2c1cnn2C(CCOCP(=O)(O)O)OCCCO (stereo not shown) [20i, Sodium salt of ((3‐(3‐hydroxypropoxy)‐3‐(4‐oxo‐4,5‐dihydro‐1H‐pyrazolo[3,4‐d]pyrimidin‐1‐yl)propoxy)methyl)phosphonic acid]
Ki [8]: > 60 µM | Ki [9]: > 60 µM

CCOC(=O)[C@H](Cc1ccccc1)NP(=O)(COCC(OCCO)n1cnc2c(=O)[nH]cnc21)N[C@@H](Cc1ccccc1)C(=O)OCC (stereo partly shown) [21a, Bis‐(L‐phenylalaninate ethyl ester) prodrug of ((2‐(2‐hydroxyethoxy)‐2‐(hypoxanthin‐9‐yl)ethoxy)methyl)phosphonic acid]
Viability NHDF [3]: 104 ± 8 % control | Viability CCRF-CEM [4]: 101 ± 2 % control | IC50 [1, 10]: 71 ± 1 µM | Viability HL-60 [5]: 103 ± 0 % control | IC50 [2, 11]: 34 ± 6 µM | Viability HeLa [6]: 97 ± 2 % control | Viability HepG2 [7]: 98 ± 3 % control

CCOC(=O)[C@H](Cc1ccccc1)NP(=O)(CCOCC(OCCO)n1cnc2c(=O)[nH]cnc21)N[C@@H](Cc1ccccc1)C(=O)OCC (stereo partly shown) [21c, Bis‐(L‐phenylalaninate ethyl ester) prodrug of (2‐(2‐(2‐hydroxyethoxy)‐2‐(hypoxanthin‐9‐yl)ethoxy)ethyl) phosphonic acid]
Viability NHDF [3]: 102 ± 6 % control | Viability CCRF-CEM [4]: 100 ± 2 % control | IC50 [1, 10]: 14 ± 2 µM | Viability HL-60 [5]: 104 ± 2 % control | IC50 [2, 11]: 41 ± 5 µM | Viability HeLa [6]: 97 ± 2 % control | Viability HepG2 [7]: 97 ± 2 % control

CCOC(COCCP(=O)(O)O)n1cnc2c(=O)[nH]c(N)nc21 (stereo not shown) [compound 25, Sodium salt of (2‐(2‐(guanin‐9‐yl)‐2‐ethoxyethoxy)ethyl)phosphonic acid]
Ki [8]: 3 ± 0.5 µM | Ki [9]: 3.7 ± 0.9 µM
